# Source: publication PMC10810742 (The Journal of Biological Chemistry, 2023)
# pKd: −log10 of the molar value.
# Molecular target: T1, CteC36–276 (Chromobacterium violaceum, UniProt Q7NY09)
# T1 construct: gene cteC; residues 36-276 (disordered N-terminal 1-35 removed); SeMet form for the crystal
# Test: isothermal titration calorimetry
# Format: binding
# T1 sequence (Q7NY09 36-276): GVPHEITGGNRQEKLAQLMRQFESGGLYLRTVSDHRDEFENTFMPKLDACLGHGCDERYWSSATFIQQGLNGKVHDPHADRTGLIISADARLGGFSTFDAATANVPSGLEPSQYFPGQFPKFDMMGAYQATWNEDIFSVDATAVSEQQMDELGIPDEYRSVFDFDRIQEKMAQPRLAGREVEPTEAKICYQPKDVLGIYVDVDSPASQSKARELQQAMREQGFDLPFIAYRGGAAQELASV
smiles,measurement,value
NC(=O)c1ccc[n+]([C@@H]2O[C@H](COP(=O)(O)OP(=O)(O)OC[C@H]3O[C@@H](n4cnc5c(N)ncnc54)[C@H](O)[C@@H]3O)[C@@H](O)[C@H]2O)c1 [NAD^+],pKd,3.91
